Molecules are shown by their SMILES. Activity calls are given as the source filed them. How the calls were made is not given here.

The data set relates to CCRIS mutagenicity, Ames/micronucleus/aberration tests. Kind of data set: CCRIS mutagenicity studies.
Setting [1] is: Test System: AMES SALMONELLA TYPHIMURIUM, Strain/Indicator: TA98, Metabolic Activation: NONE, Method: STANDARD PLATE.
[2] abbreviates: Test System: AMES SALMONELLA TYPHIMURIUM, Strain/Indicator: TA98, Metabolic Activation: NONE, Method: PREINCUBATION
The mark [3] stands for this setting: Test System: AMES SALMONELLA TYPHIMURIUM, Strain/Indicator: TA100, Metabolic Activation: NONE, Method: PREINCUBATION
Where [4] appears, read: Test System: AMES SALMONELLA TYPHIMURIUM, Strain/Indicator: TA1535, Metabolic Activation: NONE, Method: PREINCUBATION
The mark [5] stands for this setting: Test System: AMES SALMONELLA TYPHIMURIUM, Strain/Indicator: TA1537, Metabolic Activation: NONE, Method: PREINCUBATION

In the case of `N#CC(C#N)=C(C#N)C#N`, the mutagenic call runs as follows: (Test System: AMES SALMONELLA TYPHIMURIUM, Strain/Indicator: TA98, Metabolic Activation: HAMSTER, LIVER, S-9, AROCLOR 1254 (10%), Method: STANDARD PLATE) “inactive; negative”; under setting [1], “inactive; negative”; (Test System: AMES SALMONELLA TYPHIMURIUM, Strain/Indicator: TA98, Metabolic Activation: RAT, LIVER, S-9, AROCLOR 1254 (10%), Method: STANDARD PLATE) “inactive; negative”; (Test System: AMES SALMONELLA TYPHIMURIUM, Strain/Indicator: TA100, Metabolic Activation: HAMSTER, LIVER, S-9, AROCLOR 1254 (10%), Method: STANDARD PLATE) “inactive; negative”; (Test System: AMES SALMONELLA TYPHIMURIUM, Strain/Indicator: TA100, Metabolic Activation: NONE, Method: STANDARD PLATE) “inactive; negative”; (Test System: AMES SALMONELLA TYPHIMURIUM, Strain/Indicator: TA100, Metabolic Activation: RAT, LIVER, S-9, AROCLOR 1254 (10%), Method: STANDARD PLATE) “inactive; negative”. In addition, the mutagenic call runs as follows: (Test System: AMES SALMONELLA TYPHIMURIUM, Strain/Indicator: TA1535, Metabolic Activation: HAMSTER, LIVER, S-9, AROCLOR 1254 (10%), Method: STANDARD PLATE) “inactive; negative”; (Test System: AMES SALMONELLA TYPHIMURIUM, Strain/Indicator: TA1535, Metabolic Activation: NONE, Method: STANDARD PLATE) “inactive; negative”; (Test System: AMES SALMONELLA TYPHIMURIUM, Strain/Indicator: TA1535, Metabolic Activation: RAT, LIVER, S-9, AROCLOR 1254 (10%), Method: STANDARD PLATE) “inactive; negative”; (Test System: AMES SALMONELLA TYPHIMURIUM, Strain/Indicator: TA1537, Metabolic Activation: HAMSTER, LIVER, S-9, AROCLOR 1254 (10%), Method: STANDARD PLATE) “inactive; negative”; (Test System: AMES SALMONELLA TYPHIMURIUM, Strain/Indicator: TA1537, Metabolic Activation: NONE, Method: STANDARD PLATE) “inactive; negative”; (Test System: AMES SALMONELLA TYPHIMURIUM, Strain/Indicator: TA1537, Metabolic Activation: RAT, LIVER, S-9, AROCLOR 1254 (10%), Method: STANDARD PLATE) “inactive; negative”. Besides, the mutagenic call (Test System: AMES SALMONELLA TYPHIMURIUM, Strain/Indicator: TA1538, Metabolic Activation: HAMSTER, LIVER, S-9, AROCLOR 1254 (10%), Method: STANDARD PLATE) was “inactive; negative”; the mutagenic call (Test System: AMES SALMONELLA TYPHIMURIUM, Strain/Indicator: TA1538, Metabolic Activation: NONE, Method: STANDARD PLATE) is “inactive; negative”; the mutagenic call (Test System: AMES SALMONELLA TYPHIMURIUM, Strain/Indicator: TA1538, Metabolic Activation: RAT, LIVER, S-9, AROCLOR 1254 (10%), Method: STANDARD PLATE) is “inactive; negative”; the mutagenic call (Test System: MOUSE LYMPHOMA, Strain/Indicator: L5178Y (TK+/TK-), Metabolic Activation: NONE, Method: SUSPENSION/PLATE) is “inactive; negative. reevaluation of results: inconclusive”; the mutagenic call (Test System: MOUSE LYMPHOMA, Strain/Indicator: L5178Y (TK+/TK-), Metabolic Activation: RAT, LIVER, S-9, AROCLOR 1254, Method: SUSPENSION/PLATE) is “inactive; negative. reevaluation of results: inconclusive”.
Turning to `C=C(C)CC(C)(C)C`, the mutagenic call by setting is: under setting [2], “inactive; negative”; (Test System: AMES SALMONELLA TYPHIMURIUM, Strain/Indicator: TA98, Metabolic Activation: RAT, LIVER, S-9, PHENOBARBITAL AND BETA-NAPHTHOFLAVONE, Method: PREINCUBATION) “inactive; negative”; under setting [3], “inactive; negative”; (Test System: AMES SALMONELLA TYPHIMURIUM, Strain/Indicator: TA100, Metabolic Activation: RAT, LIVER, S-9, PHENOBARBITAL AND BETA-NAPHTHOFLAVONE, Method: PREINCUBATION) “inactive; negative”; (Test System: AMES SALMONELLA TYPHIMURIUM, Strain/Indicator: TA102, Metabolic Activation: NONE, Method: PREINCUBATION) “inactive; negative”; (Test System: AMES SALMONELLA TYPHIMURIUM, Strain/Indicator: TA102, Metabolic Activation: RAT, LIVER, S-9, PHENOBARBITAL AND BETA-NAPHTHOFLAVONE, Method: PREINCUBATION) “inactive; negative”. Moreover, the mutagenic call by setting is: (Test System: AMES SALMONELLA TYPHIMURIUM, Strain/Indicator: TA104, Metabolic Activation: NONE, Method: PREINCUBATION) “inactive; negative”; (Test System: AMES SALMONELLA TYPHIMURIUM, Strain/Indicator: TA104, Metabolic Activation: RAT, LIVER, S-9, PHENOBARBITAL AND BETA-NAPHTHOFLAVONE, Method: PREINCUBATION) “inactive; negative”; under setting [4], “inactive; negative”; (Test System: AMES SALMONELLA TYPHIMURIUM, Strain/Indicator: TA1535, Metabolic Activation: RAT, LIVER, S-9, PHENOBARBITAL AND BETA-NAPHTHOFLAVONE, Method: PREINCUBATION) “inactive; negative”; under setting [5], “inactive; negative”; (Test System: AMES SALMONELLA TYPHIMURIUM, Strain/Indicator: TA1537, Metabolic Activation: RAT, LIVER, S-9, PHENOBARBITAL AND BETA-NAPHTHOFLAVONE, Method: PREINCUBATION) “inactive; negative”. Also, the mutagenic call is “inactive; negative” (Test System: E. COLI, Strain/Indicator: WP2UVRA/PKM101, Metabolic Activation: NONE, Method: PREINCUBATION); “inactive; negative” (Test System: E. COLI, Strain/Indicator: WP2UVRA/PKM101, Metabolic Activation: RAT, LIVER, S-9, PHENOBARBITAL AND BETA-NAPHTHOFLAVONE, Method: PREINCUBATION); “inactive; negative” (Test System: E. COLI, Strain/Indicator: WP2UVRA, Metabolic Activation: NONE, Method: PREINCUBATION); “inactive; negative” (Test System: E. COLI, Strain/Indicator: WP2UVRA, Metabolic Activation: RAT, LIVER, S-9, PHENOBARBITAL AND BETA-NAPHTHOFLAVONE, Method: PREINCUBATION).
Turning to `O=C1Cc2cc3ccc([N+](=O)[O-])cc3cc2[C@H](O)[C@H]1O`, the mutagenic call under setting [1] is “inactive; negative”.
Turning to `Cc1ccc2cc3c(ccc4ccccc43)c3c2c1CC3OS(=O)(=O)O` (stereo not drawn), the mutagenic call under setting [2] was “active; positive” and the mutagenic call under setting [3] was “active; positive”.
As for `Nc1cccc2cccc(S(=O)(=O)O)c12`, the mutagenic call runs as follows: under setting [2], “inactive; negative”; (Test System: AMES SALMONELLA TYPHIMURIUM, Strain/Indicator: TA98, Metabolic Activation: RAT LIVER S-9, PHENOBARBITAL AND BETA-NAPHTHOFLAVONE, Method: PREINCUBATION) “active; positive”; under setting [3], “inactive; negative”; (Test System: AMES SALMONELLA TYPHIMURIUM, Strain/Indicator: TA100, Metabolic Activation: RAT LIVER S-9, PHENOBARBITAL AND BETA-NAPHTHOFLAVONE, Method: PREINCUBATION) “inactive; negative”; under setting [4], “inactive; negative”; (Test System: AMES SALMONELLA TYPHIMURIUM, Strain/Indicator: TA1535, Metabolic Activation: RAT LIVER S-9, PHENOBARBITAL AND BETA-NAPHTHOFLAVONE, Method: PREINCUBATION) “inactive; negative”. In addition, the mutagenic call under setting [5] is “inactive; negative”; the mutagenic call (Test System: AMES SALMONELLA TYPHIMURIUM, Strain/Indicator: TA1537, Metabolic Activation: RAT LIVER S-9, PHENOBARBITAL AND BETA-NAPHTHOFLAVONE, Method: PREINCUBATION) is “active; positive”; the mutagenic call (Test System: AMES SALMONELLA TYPHIMURIUM, Strain/Indicator: TA1538, Metabolic Activation: NONE, Method: PREINCUBATION) was “inactive; negative”; the mutagenic call (Test System: AMES SALMONELLA TYPHIMURIUM, Strain/Indicator: TA1538, Metabolic Activation: RAT LIVER S-9, PHENOBARBITAL AND BETA-NAPHTHOFLAVONE, Method: PREINCUBATION) is “active; positive”; the mutagenic call (Test System: E.COLI, Strain/Indicator: WP2UVRA, Metabolic Activation: NONE, Method: PREINCUBATION) is “inactive; negative”; the mutagenic call (Test System: E.COLI, Strain/Indicator: WP2UVRA, Metabolic Activation: RAT LIVER S-9, PHENOBARBITAL AND BETA-NAPHTHOFLAVONE, Method: PREINCUBATION) is “inactive; negative”.

(Values after PubChem BioAssay AID1259407 (Chemical Carcinogenesis Research Information System (CCRIS), 2018).)
